Measurements from patent US7361279B2, “Removing metals from solution using metal binding compounds and sorbents therefor” (priority 2002, dated 2008).
“And” between values parts separate entries of the source, which are not always exact repeats. Equal entries are not always repeated.

Legend:
[1] = Batch microcosm immobilization of zinc on Calgon MRX-P GAC; conditions: pH 3, ligand to metal ratio 30:1, carbon 5 g/L
Method: (§1) Experiments were executed to bracket a range of MeBT and carbon concentrations near the sorptive capacity of calgon MRX, as judged by Freundlich isotherm modeling (c.a. 49 mg/g). Lead, copper, and zinc were chosen as models to study the complexation behavior and sorptive interactions when MeBT is bound to different transition metals. Different ratios of ligand (MeBT) and metal were chosen based on the coordination stichiometry of MeBT with each metal. The ionic strength was held constant at 0.0 1M, and H2SO4 and HNO3 were used as background electrolytes. Lead, copper and zinc concentrations of 10 mg/L and carbon concentrations of 5 g/L were employed for batch microcosm assays.
Microcosms used for benzotriazole-metal immobilization experiments on GAC. Microcosms consisted of 250 ml Erlenmeyer flasks containing 75 mls of test solution with and without activated carbon. 75 milliliter aliquots of MeBT solution containing known GAC masses were placed in 250 ml Erlenmeyer flask. […] Following equilibration, the samples were centrifuged and the supernatant was analyzed for both metal and 5-MeBT content. […] The resulting aqueous metal concentrations were measured by DPP and confirmed by inductive coupled plasma/atomic emission spectroscopy (ARL 3410 ICP/AES) in an EPA certified laboratory in the Geology department at University of Colorado. 5-MeBT was measured by both DPP and HPLC methods.

[2] = Differential pulse polarography, stability constants (DeFord-Hume, Lingane), Pb(II); format: binding
From the text: (§2) Such an approach was applied to estimate the strength of metal-benzotriazole interactions in acidic solutions. The current that flows during a single life time of a dropping mercury electrode (DME) is held at a given potential in a polarograph and is described by the Ilkovic Equation: Id=708nDo^1/2C0*m^2/3t^1/6 (2)
(§3) In their classic report, Deford and Hume (1951) defined a series of functions, where the change in reduction potential of a target ion, measured with a polarograph, can be directely related to its complexation stability by the progressive addition of a known ligand.
(§4) Stability constants are obtained as follows where F0(x)=ΣβnCL^n=β0β1CL+β2CL^2+ . . . +βnCL^n (7)
(§5) In order to obtain β1, . . . , βn, a widely-accepted graphical extrapolation method derived by Leden (1941) was applied. Sequential plots of equation (7) (Fn(X) vs. C) yielded a family of curves, through which coordination chemistry between metals and benzotriazoles was determined.
(§6) The maximum coordination number was also independently determined using the Lingane method reported by Crow (1969) with a plot of ΔE1/2 Vs. Log Cx relationship, using the Lingane equation: […]
(§7) βmxj (the overall stability constant), and j (maximum number of ligands coordinated with a metal through a reversible series of complexing interactions), were determined for Cu(II), Pb(II) and Zn(II) interactions with benzotriazoles. The present application reports the development and use of polarographic methods for quantification of benzotriazole complexes to study their potential for immobilizing metals on activated carbon surfaces.
(§8) Polarographic and voltammetric measurements were performed with a CV-50W Voltametric analyzer fitted with a controlled growth mercury electrode; this multimode electrode was used in a static mercury drop electrode (SMDE) mode. The mercury electrode was multiplexed using BAS commercial software (Bioanalytical Systems, Inc., Lafayette, Ind., USA) a platinum auxiliary electrode and an Ag/AgCl (3 M KCl) reference electrode. All potentials were normalized to the Ag/AgCl electrode. A system scan rate of 5 mV s^−1 was used with a drop time of 1 sec. For DPP, the pulse amplitude was 100 mV with a sample width of 17 msec. A repeatable drop size was produced using a borosilicate capillary tube. The solenoid activation setting was 100 ms for all runs.
(§9) For the stability constant calculations, a 15 ml supporting electrolyte solution was pipetted into the voltammetric cell and the metal salt addition was adjusted to yield a final concentration of approximately 10^−5 M. The ligand (5-methybenzotriazole) was then added in increasing concentration from 0 to 1×10^−2 M. Polarograms were constructed, and the shift in the half wave potential was recorded after each ligand addition. All DPP measurements were made in triplicate.

[3] = Desorption of MeBT from GAC surfaces; format: physicochemical; conditions: 30 day period, metal- and benzotriazole-free solutions, pH 2-5, varying ionic strength
Method: After sorption, GAC was removed, washed with water, and then transferred to a clean electrolyte solution at different pH (pH 2-4) to investigate the stability of the metal: 5-MeBT complexes once immobilized on activated carbon. After 24 hours of equilibration and at time intervals 0, 7, and 30 days, 5 mls of each sample was centrifuged and analyzed for both metal and 5-MeBT content using both ICP/EAS and HPLC.
The potential for the desorption of MeBT from GAC surfaces was monitored over a 30 day period.

[4] = Batch microcosm immobilization of lead on Calgon MRX-P GAC
Method: as §1
(§10) Microcosms used for benzotriazole-metal immobilization experiments on GAC. Microcosms consisted of 250 ml Erlenmeyer flasks containing 75 mls of test solution with and without activated carbon. 75 milliliter aliquots of MeBT solution containing known GAC masses were placed in 250 ml Erlenmeyer flask. The samples were allowed to equilibrate on a shaker table at 15° C. for no more than 24 hours. Following equilibration, the samples were centrifuged and the supernatant was analyzed for both metal and 5-MeBT content. Metal-ligand molar ratios of 1:0, 1:2, 1:10, and 1:30 were employed. Identical experiments were conducted for each metal in the absence of GAC for the same metal: ligand ratios to determine any possible metal removal effects associated with precipitation. The resulting aqueous metal concentrations were measured by DPP and confirmed by inductive coupled plasma/atomic emission spectroscopy (ARL 3410 ICP/AES) in an EPA certified laboratory in the Geology department at University of Colorado. 5-MeBT was measured by both DPP and HPLC methods.

[5] = Batch microcosm immobilization of copper on Calgon MRX-P GAC
Method: as §1, §10

[6] = Differential pulse polarography, stability constants (DeFord-Hume, Lingane), Cu(II); format: binding
From the text: as §2, §3, §4, §5, §6, §7, §8, §9

[7] = Differential pulse polarography, Zn(II) complexation; format: binding; conditions: DPP, increasing MeBT
From the text: as §2, §3, §7
Polarographic and voltammetric measurements were performed with a CV-50W Voltametric analyzer fitted with a controlled growth mercury electrode; this multimode electrode was used in a static mercury drop electrode (SMDE) mode. […]

[8] = Removal of benzotriazoles from solution by granular activated carbon; format: physicochemical; conditions: for soluble 5-MeBT content after exposure to GAC (HPLC): after 24 hours
Method: A spectra-Physics high performance liquid chromatograph (HPLC) fitted with a UV detector (λ=254 nm) was used. 5-MeBT analysis was performed isocratically using two Zorbax Rx-C8 4.6×250 mm columns in series (MacMod Analytical, Inc., Chadds Ford, Pa., USA). The eluent consisted of a phosphate buffer mixed in a 70:30 ratio with HPLC grade acetylnitrile at a flow rate of 1.5 ml/minute with a sample injection volume of 200 μl. All samples were centrifuged at 10,000×g for 5 minutes prior to analysis.
Using simple time-series analysis of soluble methylbenzotriazole, the minimum time required for complete sorption was determined. Each experiment reached equilibrium before 48 hours, using a criteria of no more than 4% change in aqueous concentration during the observation period. Mass balances were used to determine the equilibrium portioning of MeBT in the microcosms system. Aqueous concentration data was used to calculate the amount of MeBT associated with GAC by differences. The equilibrium partioning data were then inverted and log-transformed, and tested against widely-accepted sorption models for “best-fit”.
A spectra-Physics high performance liquid chromatography (HPLC) with UV-Vis Detector (λ=254 nm) was used. Methylbenzotriazole analysis was performed isocratically using two Zorbax Rx-C8 4.6×250 mm columns in series (MacMod Analytical, Inc., Chadds Ford, Pa., USA). The eluent consisted of a phosphate buffer mixed in a 70:30 ratio with HPLC grade acetylnitrile at a flow rate of 1.5 ml/minute with a sample injection volume of 200 μl. All samples were centrifuged at 10,000×g for 5 minutes prior to analysis.
as §10

[9] = cited from earlier work
[10] = Pb(II) 3 × 10^−5 M, 5-MeBT 0-7 × 10^−3 M
[11] = [Pb(II)]=3×10^−5M, pH=3, T=25° C.
[12] = Cu(II) 5 × 10^−5 M, 5-MeBT 0-3 × 10^−3 M
[13] = [Cu(II)]=5×10^−5M, pH=2.5, T=25° C.

Cc1ccc2[nH]nnc2c1 [5-MeBT, 5-methylbenzotriazole]
Zn(II) removal efficiency, maximum [1]: 9%
DeFord-Hume method Log β1 [2, 10]: 3.3
Lingane method Log βn [2, 10]: 3.8
Maximum coordination number (ligand: metal ratio) [2, 10]: 1
β1 from intercept of F1(X) vs. [MeBT] [2, 11]: ~1.8×10^3
β1 from slope of Fo(X) vs. [MeBT] [2, 11]: ~2.2×10^3
desorption of 5-MeBT from saturated Calgon MRX-P [3]: did not liberate measurable amounts
share of lead sequestered on GAC associated with an MeBT precipitate [4]: approximately 25%
share of lead sequestered on GAC associated with soluble MeBT complex [4]: ~75%
Pb(II) removal in the absence of GAC (precipitation) ([4]; pH 2, MeBT to Pb(II) molar ratio 2): approximately 2.5%
Pb(II) removal in the absence of GAC (precipitation) ([4]; pH 2, MeBT to Pb(II) molar ratio 10): ~6%
Pb(II) removal in the absence of GAC (precipitation) ([4]; pH 2, MeBT to Pb(II) molar ratio 30): ~12%
precipitation-associated Pb(II) removal ([4]; pH 3, absence of GAC): about 20%
Pb(II) removal efficiency, maximum ([4]; pH 3, ligand to metal ratio approximately 30:1, carbon 5 g/L): 82%
share of copper sequestered on GAC associated with an MeBT precipitate ([5]; pH 2): almost none
Cu(II) removal efficiency, maximum ([5]; pH 2, ligand to metal ratio 30:1, carbon 5 g/L): 13%
share of copper removal associated with an MeBT precipitate ([5]; pH 3): approximately 18%
Cu(II) removal ([5]; pH 3, MeBT to Cu(II) molar ratios of 2, 10 and 30): 32-35%
share of copper removal associated with an MeBT precipitate ([5]; pH 4): ~40%
β (copper complexing agent) [6]: ~10^15
DeFord-Hume method Log β1 [6, 12]: 12.8
DeFord-Hume method Log β2 [6, 12]: 15.8
Lingane method Log βn [6, 12]: 15.8
Maximum coordination number (ligand: metal ratio) [6, 12]: 2
β1 (first complex stability) from intercept of F1(X) [6, 13]: ~6×10^12
β2 (overall stability constant) from slope of F1(X) [6, 13]: ~7×10^15
β2 from intercept of F2(X) vs. [5-MeBT] [6, 13]: 7×10^15
potential shift on addition of MeBT to zinc-containing solutions [7]: no potential shifts
potential shift on addition of MeBT to zinc-containing solutions ([7]; listed as methybenzotriazole): no significant potential shifts
time to sorption equilibrium ([8]; 1% GAC w/vol, 10-2000 mg/L MeBT, no more than 4% change criterion): < 48 h
affinity for granular activated carbon compared with benzene ([8]; Calgon MRX 10×30 mesh, pH 2 to 5): approximately the same as that observed for benzene
soluble 5-MeBT content after exposure to GAC (HPLC) ([8]; copper microcosms): less than 0.25 mg/L
soluble 5-MeBT content after exposure to GAC (HPLC) ([8]; lead microcosms): less than 0.25 mg/L
soluble 5-MeBT content after exposure to GAC (HPLC) ([8]; zinc microcosms): less than 0.25 mg/L
first pKa (dissociation) [9]: ~2 and 2
second pKa (dissociation) [9]: ~9
pKa ([9]; weak organic acid): approximately 8.8
